This note sets out measurements from ChEMBL document CHEMBL1201862, “PubChem BioAssay data set” (2004).

Holding throughout (assay): NCI tumour cell line growth inhibition, 48 h
Assay [1] deals with 786-0.
The subject of assay [2] is A498.
For assay [3], the system named is ACHN.
Assay [4] concerns HL-60.
Assay [5] concerns HOP-62.
Assay [6] relates to HT-29.
Assay [7] deals with IGROV-1.
Assay [8] concerns KM12.
The subject of assay [9] is MCF7.
Assay [10] concerns MDA-N.
The test system of assay [11] is NCI-H23.
For assay [12], the system named is OVCAR-5.
Assay [13] concerns OVCAR-8.
Assay [14] concerns PC-3.
For assay [15], the system named is SF-539.
The test system of assay [16] is SK-MEL-2.
For assay [17], the system named is SK-OV-3.
Assay [18] deals with SW-620.
In assay [19] the test system is U-251.
For assay [20], the system named is HOP-92.

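Exposure lasted 48 hours, with cells grown in 96-well plates and compounds tested at five concentrations. Here, GI50 denotes the concentration required for 50% inhibition of growth.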 Activity calls are given as the source filed them. No stated cut-off is given here; in the data, active = GI50 up to about 1.1 µM and inactive = higher.

As to `C#Cc1cccc(N2C(=O)CCC2=O)c1`, the GI50 was 18 µM (inactive) in assay [1]; 15.6 µM (inactive) in assay [2]; 16.7 µM (inactive) in [3]; 2.25 µM (inactive) in assay [4]; > 10 µM (inactive) in assay [5]; 12.1 µM (inactive) in assay [6]. The GI50 in assay [7] was 21.5 µM (inactive); in [8], 13.6 µM (inactive); in assay [9], 19.4 µM (inactive); in [10], 14.2 µM (inactive); in assay [11], 14.7 µM (inactive); in assay [12] it was 16.7 µM (inactive). In addition, the GI50 in assay [13] was 18.5 µM (inactive); in assay [14] it was 15.2 µM (inactive); in assay [15], 21.5 µM (inactive); in assay [16], 19.9 µM (inactive); in assay [17], 21 µM (inactive); in assay [18], 5.61 µM (inactive). Further, the GI50 in assay [19] is 1.67 µM (inactive).

On to `O=C(O)c1ccccc1/C=N\N=C1NCCCCN1`, for which the GI50 in assay [1], in assay [2], in assay [3], in [5], in assay [6] and in assay [7] was > 100 µM (inactive) each time. In addition, the GI50 in [8], in assay [9], in [10], in [11], in [12] and in assay [13] was > 100 µM (inactive) each time. Besides, the GI50 in assay [14], in assay [15], in assay [16], in assay [17], in [18] and in assay [19] was > 100 µM (inactive) throughout.

Consider `COc1ccc(/C=N/NC(=O)O)cc1`, for which the GI50 in assay [1], in assay [2], in assay [3], in assay [5], in assay [6] and in assay [7] was > 100 µM (inactive) throughout. Also, the GI50 in assay [8], in assay [9], in assay [10], in assay [11], in assay [12] and in [14] was > 100 µM (inactive) in each case. Further, the GI50 in assay [15], in assay [16], in [17], in assay [18] and in [19] was > 100 µM (inactive) in each case.

With `Nn1c(S)nnc1C12CC3CC(CC(C3)C1)C2`, the GI50 in assay [1], in assay [2], in assay [3], in assay [4], in [5] and in [20] was > 100 µM (inactive) each time. The GI50 in assay [6], in [7], in assay [8], in [10], in assay [11] and in assay [12] was > 100 µM (inactive) in each case. Also, the GI50 in assay [14], in [15], in [16], in assay [17], in assay [18] and in [19] was > 100 µM (inactive) each time.

In the case of `C[N+]1([O-])[C@H]2CC(OC(=O)[C@H](CO)c3ccccc3)C[C@H]1[C@H]1O[C@H]12` (some centres undefined), the GI50 in assay [1], in assay [2], in [3], in [5], in [6] and in assay [7] was > 100 µM (inactive) each time. The GI50 in [8], in assay [9], in [10], in assay [11], in assay [12] and in [13] was > 100 µM (inactive) each time. In addition, the GI50 in assay [14], in assay [15], in assay [16], in [17], in [18] and in assay [19] was > 100 µM (inactive) each time.

With `Cc1ccc(OCC2=NN3C(=O)/C(=C\c4ccc([N+](=O)[O-])o4)SC3N2)cc1` (centres undefined), the GI50 was 10.2 µM (inactive) in [1]; 17.4 µM (inactive) in [2]; 1.71 µM (inactive) in assay [3]; 1.59 µM (inactive) in assay [4]; 16.6 µM (inactive) in [5]; 2.8 µM (inactive) in [20]. Further, the GI50 was 6.7 µM (inactive) in assay [6]; 10.5 µM (inactive) in assay [7]; 15.8 µM (inactive) in assay [8]; 4.3 µM (inactive) in [10]; 11.9 µM (inactive) in [11]; 19.2 µM (inactive) in [12]. For the same molecule, the GI50 is 3.66 µM (inactive) in [13]; 5.5 µM (inactive) in assay [14]; 2 µM (inactive) in assay [15]; 15.7 µM (inactive) in assay [16]; 16.3 µM (inactive) in assay [17]; 2.93 µM (inactive) in [18]. For the same molecule, the GI50 in assay [19] was 15.8 µM (inactive).

`COC(=O)/C=C\n1ncc(=O)[nH]c1=O`: the GI50 in [2], in assay [3], in [4], in assay [5], in assay [20] and in [6] was > 100 µM (inactive) throughout. For the same molecule, the GI50 in assay [7] is > 100 µM (inactive); in [8], > 10 µM (inactive); in [10], > 100 µM (inactive); in assay [11], > 100 µM (inactive); in assay [12] it was > 100 µM (inactive); in assay [13], > 100 µM (inactive). Moreover, the GI50 in assay [14], in assay [16], in [18] and in assay [19] was > 100 µM (inactive) throughout.

As to `CC(C)(C)c1ccc(-c2nnc(-c3cc(C#N)cc(-c4nnc(-c5ccc(C(C)(C)C)cc5)o4)c3)o2)cc1`, the GI50 was 50.2 µM (inactive) in assay [1]; > 100 µM (inactive) in [2]; > 100 µM (inactive) in [3]; 60.1 µM (inactive) in [5]; > 100 µM (inactive) in [20]; > 100 µM (inactive) in assay [6]. Besides, the GI50 in assay [7], in [8], in [10], in [11], in assay [12] and in assay [13] was > 100 µM (inactive) each time. The GI50 in assay [14], in assay [16], in [17], in assay [18] and in [19] was > 100 µM (inactive) each time.

For the molecule `CC12CC(=O)C3C(C(=O)C1)C32C` (centres undefined), the GI50 in assay [1], in [2], in assay [3], in [5], in [6] and in [7] was > 100 µM (inactive) throughout. In addition, the GI50 in assay [8] was 0.488 µM (active); in assay [9], > 100 µM (inactive); in [10], > 100 µM (inactive); in [11], > 100 µM (inactive); in assay [12] it was > 100 µM (inactive); in assay [13] it was > 100 µM (inactive). Moreover, the GI50 in assay [14], in [15], in assay [16], in assay [17], in [18] and in assay [19] was > 100 µM (inactive) in each case.

Consider `O=C(O)CCCN1CCCCC1`, for which the GI50 in [1], in assay [2], in assay [3], in [5], in assay [20] and in [6] was > 100 µM (inactive) throughout. Besides, the GI50 in assay [7], in assay [8], in [10], in assay [11], in [12] and in assay [13] was > 100 µM (inactive) in each case. Moreover, the GI50 in assay [14], in assay [16], in assay [18] and in assay [19] was > 100 µM (inactive) in each case.

For the molecule `c1ccc2c(CCNC3=NCCO3)cccc2c1`, the GI50 in [2], in [3], in assay [4], in assay [5], in [6] and in assay [7] was > 10 µM (inactive) each time. Further, the GI50 in [8], in assay [9], in assay [10], in assay [11], in assay [12] and in assay [13] was > 10 µM (inactive) throughout. The GI50 in assay [14], in assay [15], in assay [16], in assay [17], in assay [18] and in [19] was > 10 µM (inactive) in each case.
